Data from patent publication US12180172B1, “[3-(4-Methoxyphenyl)-1,2,4-oxadiazol-5-yl]methanol as an antitumor and antimicrobial compound” (KING FAISAL UNIVERSITY, priority 2023, dated 2024).

What was measured:
Assay type in all cases: cell-based
[1] = tested on: human osteosarcoma cells (MG-63); assay: Cytotoxicity by SRB assay, MG-63; conditions: MG-63 cells, 0.01 μM to 100 μM for 72 h
Description: (§1) The human prostate cancer cells (PC3) and human osteosarcoma cells (MG-63) were obtained from Nawah Scientific Inc. (Mokatam, Cairo, Egypt) and cultured in DMEM (Dulbecco's modified eagle's medium), Gibco, USA, supplemented with fetal bovine serum (FBS) at a concentration of 10% and 100 U/mL of penicillin and streptomycin (PS). The Cells were incubated at 37° C. in a humidified environment that contained 5% CO2. Cells were seeded in 96-well plates as aliquots of 100 μL cell suspension and incubated in a complete media for 24 h. afterward, cells were treated with [3-(4-methoxyphenyl)-1,2,4-oxadiazol-5-yl]methanol at diverse concentrations ranging from 0.01 μM to 100 μM for 72 h. Then, cells were fixed at 4° C. for one hour with 150 μL of 10% trichloroacetic acid (TCA). After washing the cells five times with distilled water, 70 μL of sulforhodamine (SRB) solution (0.4% w/v) was added and incubated for 10 min at room temperature in a dark place. […] Then, 150 μL of Tris pH 10.5 (10 mM) was added, and the absorbance was measured at 540 nm using a BMG LABTECH®-FLUOstar Omega microplate reader (Ortenberg, Germany). Half maximal inhibitory concentrations (IC50) values were calculated for each experiment using GraphPad Prism 6 software. […] The inhibition was calculated using the following equation: Inhibition %=100−Average Viability

[2] = tested on: Chrysosporium keratinophilum; assay: Agar plate disc-diffusion, Chrysosporium keratinophilum; conditions: fungus; disc 10 μL of 10 mg/mL in DMSO, 72 h
Description: (§2) The antimicrobial properties of the synthesized compounds were studied by the method of agar plate disc-diffusion. Sterilized filter papers (6 mm in diameter) were wetted with 10 μL of a solution of each compound to be tested, containing 10 mg/mL in DMSO, and the discs were allowed to air dry. The discs were then placed onto the surface of agar plates (nutrient agar for bacteria and Sabouraud's dextrose agar for fungi) seeded with the test organism. Each plate contained 15 mL of the agar medium, previously seeded with 0.2 mL of the broth culture of each organism pregrown for 18 h. The plates were incubated at 37° C. for 48 h, and 72 h for fungi. The inhibition zones were measured in mm. Discs impregnated with DMSO were used as a control, and its inhibition zone was subtracted from the tested compound actual inhibition zone.

[3] = tested on: Aspergillus flavus; assay: Agar plate disc-diffusion, Aspergillus flavus; conditions: fungus; disc 10 μL of 10 mg/mL in DMSO, 72 h
Description: as §2

[4] = tested on: Staphylococcus aureus; assay: Agar plate disc-diffusion, Staphylococcus aureus; conditions: gram positive; disc 10 μL of 10 mg/mL in DMSO, 37° C., 48 h
Description: as §2

[5] = tested on: human prostate cancer cells (PC3); assay: Cytotoxicity by SRB assay, PC3; conditions: 0.01 μM to 100 μM for 72 h
Description: as §1

[6] = tested on: Escherichia coli; assay: Agar plate disc-diffusion, Escherichia coli; conditions: gram-negative; disc 10 μL of 10 mg/mL in DMSO, 37° C., 48 h
Description: as §2

[7] = tested on: Bacillus cereus; assay: Agar plate disc-diffusion, Bacillus cereus; conditions: gram positive; disc 10 μL of 10 mg/mL in DMSO, 37° C., 48 h
Description: as §2

[8] = tested on: Pseudomonas aeruginosa; assay: Agar plate disc-diffusion, Pseudomonas aeruginosa; conditions: gram-negative; disc 10 μL of 10 mg/mL in DMSO, 37° C., 48 h
Description: as §2

COc1ccc(-c2noc(CO)n2)cc1 [[3-(4-methoxyphenyl)-1,2,4-oxadiazol-5-yl]methanol]
antiproliferative activity [1]: excellent antiproliferative activities
antifungal activity [2]: high antimicrobial activities
antifungal activity [3]: high antimicrobial activities
antibacterial activity [4]: high antimicrobial activities
antiproliferative activity [5]: excellent antiproliferative activities
antibacterial activity [6]: high antimicrobial activities
antibacterial activity [7]: high antimicrobial activities
antibacterial activity [8]: high antimicrobial activities
